From a flash point compilation (Sun et al. 2020) come the findings set out here.

Structures can show the parent of a compound that is named as a salt.

Turning to `OCCOCCO` [2-(2-hydroxyethoxy)ethanol], the flash point was found to be 143.00 °C.

Turning to `OCCNCCO` [2-(2-hydroxyethylamino)ethanol], the flash point was 137.00 °C.

For the compound `Oc1cc(O)c2cc(O)c(-c3cc(O)c(O)c(O)c3)[o+]c2c1.[Cl-]` [2-(3,4,5-trihydroxyphenyl)chromenylium-3,5,7-triol;chloride], the flash point stood at 193.00 °C.

The compound `CC(C)=CCC1CCCC1=O` (configuration not stated) [2-(3-methylbut-2-enyl)cyclopentan-1-one] displayed a flash point of 23.00 °C.

`OCCN1CC1` [2-(aziridin-1-yl)ethanol] registered a flash point of 67.00 °C.

With `CCCCN(CCO)CCCC` [2-(dibutylamino)ethanol], the flash point was 99.00 °C.

In the case of `CCN(CC)CCO` [2-(diethylamino)ethanol], the flash point was 60.00 °C.

Take `C=CC(=O)OCCN(CC)CC` [2-(diethylamino)ethyl prop-2-enoate]: the flash point is 91.00 °C.

In the case of `CN(C)CCO` [2-(dimethylamino)ethanol], the flash point was found to be 41.00 °C.

Regarding `C=C(C)C(=O)OCCN(C)C` [2-(dimethylamino)ethyl 2-methylprop-2-enoate], the flash point amounted to 74.00 °C.

`CCNCCO` [2-(ethylamino)ethanol] showed a flash point of 71.00 °C.

The compound `C(OCC1CO1)C1CO1` (configuration not stated) [2-(oxiran-2-ylmethoxymethyl)oxirane] returned a flash point of 64.00 °C.

Take `CC(C)OCC1CO1` (configuration not stated) [2-(propan-2-yloxymethyl)oxirane]: the flash point worked out at 33.00 °C.

As to `C=C(C)C(=O)OCCNC(C)(C)C` [2-(tert-butylamino)ethyl 2-methylprop-2-enoate], the flash point was 96.00 °C.

Regarding `ClC(Cl)(Cl)C1CO1` (configuration not stated) [2-(trichloromethyl)oxirane], the flash point amounted to 67.00 °C.

In the case of `CCCCCCCCCCOC(=O)c1ccccc1C(=O)OCCCCCCCC` [2-O-decyl 1-O-octyl benzene-1,2-dicarboxylate], the flash point worked out at 235.00 °C.

As for `CCOCCOCCOCCO` [2-[2-(2-ethoxyethoxy)ethoxy]ethanol], the flash point was 135.00 °C.

For the compound `OCCOCCOCCO` [2-[2-(2-hydroxyethoxy)ethoxy]ethanol], the flash point was found to be 166.00 °C.

The compound `CC(O)COC(C)COC(C)CO` (configuration not stated) [2-[2-(2-hydroxypropoxy)propoxy]propan-1-ol] registered a flash point of 141.00 °C.

For the compound `CN(C)CCOCCN(C)C` [2-[2-(dimethylamino)ethoxy]-N,N-dimethylethanamine], the flash point is 79.00 °C.

Turning to `CCCCOCCOCCOCCOCCO` [2-[2-[2-(2-butoxyethoxy)ethoxy]ethoxy]ethanol], the flash point came out at 166.00 °C.

In turn, `COCCOCCOCCOCCO` [2-[2-[2-(2-methoxyethoxy)ethoxy]ethoxy]ethanol] had a flash point of 161.00 °C.

Regarding `CN(CCO)CCO` [2-[2-hydroxyethyl(methyl)amino]ethanol], the flash point was determined as 127.00 °C.

`Cc1ccccc1OCC1CO1` (configuration not stated) [2-[(2-methylphenoxy)methyl]oxirane] gave a flash point of 93.00 °C.

For `CC(C)(C)OCC1CO1` (configuration not stated) [2-[(2-methylpropan-2-yl)oxymethyl]oxirane], the flash point came out at 43.00 °C.

As to `c1cc(OCC2CO2)cc(OCC2CO2)c1` (configuration not stated) [2-[[3-(oxiran-2-ylmethoxy)phenoxy]methyl]oxirane], the flash point was found to be 177.00 °C.

The compound `CC(=O)Oc1ccccc1C(=O)O` [2-acetyloxybenzoic acid] came in with a flash point of 250.00 °C.

The compound `CC(=O)OCC(C)OC(C)=O` (configuration not stated) [2-acetyloxypropyl acetate] had a flash point of 86.00 °C.

`Nc1ccccc1C(=O)O` [2-aminobenzoic acid] came in with a flash point of 171.00 °C.

`NCCO` [2-aminoethanol] registered a flash point of 93.00 °C.

`Nc1ccccc1O` [2-aminophenol] had a flash point of 168.00 °C.

The compound `Oc1ccc(Cl)cc1Cc1ccccc1` [2-benzyl-4-chlorophenol] yielded a flash point of 188.00 °C.

Turning to `O=C(O)C(Cl)Br` (configuration not stated) [2-bromo-2-chloroacetic acid], the flash point was 110.00 °C.

Turning to `CC(C)(C)Br` [2-bromo-2-methylpropane], the flash point was -16.00 °C.

For the compound `O=[N+]([O-])C(Br)(CO)CO` [2-bromo-2-nitropropane-1,3-diol], the flash point stood at 167.00 °C.

As for `O=C(O)CBr` [2-bromoacetic acid], the flash point is 113.00 °C.

`CCC(C)Br` (configuration not stated) [2-bromobutane] displayed a flash point of 21.00 °C.

As for `CCCC(C)Br` (configuration not stated) [2-bromopentane], the flash point was 21.00 °C.

`CCCCOCCOC(C)=O` [2-butoxyethyl acetate] had a flash point of 71.00 °C.

For `O=C(CCl)c1ccccc1` [2-chloro-1-phenylethanone], the flash point was 118.00 °C.

`CC(C)(Cl)[N+](=O)[O-]` [2-chloro-2-nitropropane] came in with a flash point of 57.00 °C.

In turn, `C=CCN(CC=C)C(=O)CCl` [2-chloro-N,N-bis(prop-2-enyl)acetamide] registered a flash point of 186.00 °C.

Take `O=C(O)CCl` [2-chloroacetic acid]: the flash point is 150.00 °C.

For the compound `Nc1ccccc1Cl` [2-chloroaniline], the flash point turned out to be 98.00 °C.

`C=C(Cl)C#N` [2-chloroprop-2-enenitrile] yielded a flash point of 7.00 °C.

In turn, `CC(C)Cl` [2-chloropropane] showed a flash point of -32.00 °C.

`CC(Cl)C(=O)O` (configuration not stated) [2-chloropropanoic acid] gave a flash point of 107.00 °C.

For `C=CC(=O)OCCC#N` [2-cyanoethyl prop-2-enoate], the flash point turned out to be 124.00 °C.

Turning to `O=C1c2ccccc2C(=O)N1SC1CCCCC1` [2-cyclohexylsulfanylisoindole-1,3-dione], the flash point amounted to 177.00 °C.

As for `CNC(=O)CSP(=S)(OC)OC` [2-dimethoxyphosphinothioylsulfanyl-N-methylacetamide], the flash point amounted to 51.00 °C.

In turn, `CCCCCCCCCCCCc1ccccc1O` [2-dodecylphenol] came in with a flash point of 163.00 °C.

The compound `C=CC1CO1` (configuration not stated) [2-ethenyloxirane] showed a flash point of -46.00 °C.

`CCOC(C)(C)C` [2-ethoxy-2-methylpropane] showed a flash point of -19.00 °C.

`CCOCC(=O)O` [2-ethoxyacetic acid] displayed a flash point of 98.00 °C.

As to `CCC(CO)(CO)CO` [2-ethyl-2-(hydroxymethyl)propane-1,3-diol], the flash point turned out to be 172.00 °C.

`CCc1ccccc1N` [2-ethylaniline] registered a flash point of 85.00 °C.

Compound `C=CC(=O)OCC(CC)CC` [2-ethylbutyl prop-2-enoate] yielded a flash point of 52.00 °C.

`CCCC=C(C=O)CC` [2-ethylhex-2-enal]: the flash point worked out at 68.00 °C.

Take `C=C(C)C(=O)OCC(CC)CCCC` (configuration not stated) [2-ethylhexyl 2-methylprop-2-enoate]: the flash point is 92.00 °C.

The compound `CCCCC(CC)COC(C)=O` (configuration not stated) [2-ethylhexyl acetate] gave a flash point of 88.00 °C.

Compound `CCc1ccc2ccccc2c1` [2-ethylnaphthalene] displayed a flash point of 104.00 °C.

Regarding `CCc1ccccc1O` [2-ethylphenol], the flash point was found to be 78.00 °C.

Take `CCC(C(=O)O)C(=O)O` [2-ethylpropanedioic acid]: the flash point stood at 85.00 °C.

`O=C(Cl)c1ccccc1F` [2-fluorobenzoyl chloride]: the flash point stood at 82.00 °C.

`O=COCCOC=O` [2-formyloxyethyl formate] registered a flash point of 93.00 °C.

`CC(C)(C)OO` [2-hydroperoxy-2-methylpropane] had a flash point of 27.00 °C.

With `CC(C)(OO)c1ccccc1` [2-hydroperoxypropan-2-ylbenzene], the flash point was determined as 57.00 °C.

In turn, `N#CC(O)c1ccccc1` (configuration not stated) [2-hydroxy-2-phenylacetonitrile] returned a flash point of 82.00 °C.

In turn, `CSCCC(O)C(=O)O` (configuration not stated) [2-hydroxy-4-methylsulfanylbutanoic acid] gave a flash point of 121.00 °C.

`O=Cc1ccccc1O` [2-hydroxybenzaldehyde] returned a flash point of 78.00 °C.

Regarding `O=C(O)c1ccccc1O` [2-hydroxybenzoic acid], the flash point was 157.00 °C.

`C=C(C)C(=O)OCCO` [2-hydroxyethyl 2-methylprop-2-enoate]: the flash point was 97.00 °C.

For `C=CC(=O)OCCO` [2-hydroxyethyl prop-2-enoate], the flash point was 101.00 °C.

The compound `C=CC(=O)OCC(C)O` (configuration not stated) [2-hydroxypropyl prop-2-enoate] gave a flash point of 65.00 °C.

Consider `CCC(C)(C)OC` [2-methoxy-2-methylbutane], for which the flash point is -7.00 °C.

Take `COC(C)(C)C` [2-methoxy-2-methylpropane]: the flash point is -26.00 °C.

Turning to `C=CCc1ccc(O)c(OC)c1` [2-methoxy-4-prop-2-enylphenol], the flash point stood at 104.00 °C.

As for `COc1ccccc1N` [2-methoxyaniline], the flash point was 99.00 °C.

Regarding `C=CC(=O)OCCOC` [2-methoxyethyl prop-2-enoate], the flash point was found to be 82.00 °C.

The compound `CC(C=O)=Cc1ccccc1` [2-methyl-3-phenylprop-2-enal] displayed a flash point of 79.00 °C.

For the compound `Cc1ccc(C(C)C)cc1O` [2-methyl-5-propan-2-ylphenol], the flash point was 100.00 °C.

For the compound `CC(C)CN(CC(C)C)CC(C)C` [2-methyl-N,N-bis(2-methylpropyl)propan-1-amine], the flash point was determined as 51.00 °C.

On to `CC1CN1` (configuration not stated) [2-methylaziridine], for which the flash point is -4.00 °C.

With `Cc1ccccc1C=O` [2-methylbenzaldehyde], the flash point came to 67.00 °C.

In the case of `C#CC(C)(C)O` [2-methylbut-3-yn-2-ol], the flash point came out at 25.00 °C.

In turn, `CCC(C)C` [2-methylbutane] returned a flash point of -57.00 °C.

Regarding `CC1CCCCC1O` (configuration not stated) [2-methylcyclohexan-1-ol], the flash point came out at 59.00 °C.
